Experiments:
Assay type in all cases: functional
[1] = target: T1, Cdk-related protein kinase 6 (Plasmodium falciparum, UniProt O77239); test: Final concentrations were 1.5 uM ATP, 5 mM MnCl2, and 15 ug/ml PK6 in a buffer of 100 mM Tris-HCl (pH 7.5). 50 ug/mL MBP was provided as the substrate; 10 uM staurosporine was used as a control inhibitor. Incubation time was 3 hours and 40 minutes.The catalytic activity of each kinase was considered proportional to ATP consumed, as determined from measurements of residual [ATP] with the luciferase-based reagent Kinase-Glo (Promega) following incubation. Luminescence (proportional to residual [ATP]) was measured on the plate readers FLx800 (BioTek Instruments, Winooski, VT, USA) and MicroBeta2.
T1 sequence (O77239 whole entry): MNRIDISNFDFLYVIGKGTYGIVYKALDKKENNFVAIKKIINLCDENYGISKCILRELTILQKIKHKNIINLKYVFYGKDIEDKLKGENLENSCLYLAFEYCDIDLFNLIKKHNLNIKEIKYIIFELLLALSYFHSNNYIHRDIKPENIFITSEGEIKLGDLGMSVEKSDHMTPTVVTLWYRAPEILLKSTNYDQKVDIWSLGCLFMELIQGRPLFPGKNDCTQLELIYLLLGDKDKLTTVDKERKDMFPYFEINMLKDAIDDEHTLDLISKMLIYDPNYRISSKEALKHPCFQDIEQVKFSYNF

[2] = target: T2, Putative uncharacterized protein pk7 (Plasmodium falciparum, UniProt O96214); test: Final concentrations were 1 uM ATP, 2 mM DTT, 20 mM MgCl2, 2 mM MnCl2, 0.01% BSA, and 6 ug/ml PK7, in a buffer of 20 mM Tris-HCl (pH 7.5). The enzyme itself was the only substrate present (since autophosphorylation occurs); 100 uM 1NA-PP1 was used as a control inhibitor. Incubation time was 3 hours.
T2 sequence (O96214 whole entry): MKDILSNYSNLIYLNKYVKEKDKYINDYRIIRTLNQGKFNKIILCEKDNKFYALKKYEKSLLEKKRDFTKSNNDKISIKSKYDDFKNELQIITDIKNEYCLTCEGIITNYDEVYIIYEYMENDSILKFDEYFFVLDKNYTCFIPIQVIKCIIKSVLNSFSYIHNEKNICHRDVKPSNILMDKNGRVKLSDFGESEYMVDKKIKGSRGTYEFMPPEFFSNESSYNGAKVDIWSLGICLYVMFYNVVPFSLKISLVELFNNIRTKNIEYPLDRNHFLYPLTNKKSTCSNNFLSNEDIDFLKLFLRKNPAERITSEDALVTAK

[3] = target: T3, Mitogen-activated protein kinase (Plasmodium falciparum, UniProt Q25917); test: Final concentrations were 1 uM ATP, 0.5 mM DTT, 1 mM MgCl2, 0.5 mg/mL BSA, and 10 ug/ml MAP2 in a buffer of 50 mM HEPES (pH 7.0). 0.5 mg/mL histone III-S served as the substrate (13); 100 uM AMP-PNP, an ATP analog, was used as a control inhibitor. Incubation time was 4 hours.
T3 sequence (Q25917 whole entry): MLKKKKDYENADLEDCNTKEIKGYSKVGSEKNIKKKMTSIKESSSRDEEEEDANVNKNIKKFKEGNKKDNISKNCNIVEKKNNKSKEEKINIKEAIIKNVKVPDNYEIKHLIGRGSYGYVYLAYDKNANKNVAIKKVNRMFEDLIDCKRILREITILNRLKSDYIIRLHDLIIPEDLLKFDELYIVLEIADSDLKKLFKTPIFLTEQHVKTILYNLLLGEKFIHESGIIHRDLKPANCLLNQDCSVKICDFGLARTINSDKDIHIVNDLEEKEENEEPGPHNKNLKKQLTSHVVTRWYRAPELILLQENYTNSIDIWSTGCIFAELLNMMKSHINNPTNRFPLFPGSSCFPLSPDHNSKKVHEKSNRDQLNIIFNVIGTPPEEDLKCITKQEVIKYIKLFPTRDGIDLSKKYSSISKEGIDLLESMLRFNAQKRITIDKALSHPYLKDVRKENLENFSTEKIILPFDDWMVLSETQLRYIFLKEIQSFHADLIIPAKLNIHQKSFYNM

[4] = target: Calcium-dependent protein kinase 1 (Plasmodium falciparum, UniProt P62344); test: MMV: CDPK1 Protein kinase inhibition assay using recombinant PfCDPK1, syntide 2 peptide substrate, ATP and KinaseGlo to measure % inhibition at 1 uM MMV box compound.
Calcium-dependent protein kinase 1, sequence (P62344 whole entry): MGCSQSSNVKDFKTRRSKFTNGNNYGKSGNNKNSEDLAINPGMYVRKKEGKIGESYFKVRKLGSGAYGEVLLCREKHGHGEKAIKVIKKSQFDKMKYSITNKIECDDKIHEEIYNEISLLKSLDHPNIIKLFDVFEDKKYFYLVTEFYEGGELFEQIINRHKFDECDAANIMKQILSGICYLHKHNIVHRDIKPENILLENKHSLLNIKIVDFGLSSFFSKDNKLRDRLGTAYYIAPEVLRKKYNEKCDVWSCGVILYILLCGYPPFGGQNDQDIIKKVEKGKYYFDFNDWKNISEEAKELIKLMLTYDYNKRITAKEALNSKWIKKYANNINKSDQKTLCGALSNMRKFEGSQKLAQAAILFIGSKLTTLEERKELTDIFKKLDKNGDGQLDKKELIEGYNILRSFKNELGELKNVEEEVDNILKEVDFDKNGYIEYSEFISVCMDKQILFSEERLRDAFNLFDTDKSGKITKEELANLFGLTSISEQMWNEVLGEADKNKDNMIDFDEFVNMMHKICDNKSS

[5] = target: T4, Calcium-dependent protein kinase 4 (Plasmodium falciparum (isolate 3D7), UniProt Q8IBS5); test: MMV: CDPK4 Protein kinase inhibition assay using recombinant PfCDPK4, syntide2 peptide substrate, ATP and KinaseGlo to measure % inhibition at 1 uM MMV box compound.
T4 sequence (Q8IBS5 whole entry): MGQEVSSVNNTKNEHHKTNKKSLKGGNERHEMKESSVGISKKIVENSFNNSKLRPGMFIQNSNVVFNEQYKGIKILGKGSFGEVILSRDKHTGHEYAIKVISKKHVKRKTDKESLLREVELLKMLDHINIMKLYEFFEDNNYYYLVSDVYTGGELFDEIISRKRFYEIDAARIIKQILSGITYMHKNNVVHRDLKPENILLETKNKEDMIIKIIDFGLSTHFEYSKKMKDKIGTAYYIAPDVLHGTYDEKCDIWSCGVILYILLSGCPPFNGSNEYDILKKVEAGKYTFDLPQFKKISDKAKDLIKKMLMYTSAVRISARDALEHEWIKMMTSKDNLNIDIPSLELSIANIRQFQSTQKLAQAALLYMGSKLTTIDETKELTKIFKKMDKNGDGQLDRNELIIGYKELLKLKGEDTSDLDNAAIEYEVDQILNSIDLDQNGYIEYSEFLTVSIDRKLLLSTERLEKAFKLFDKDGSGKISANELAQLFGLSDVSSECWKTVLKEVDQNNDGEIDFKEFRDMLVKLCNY

Proline--tRNA ligase = target: T5, Proline--tRNA ligase (Plasmodium falciparum (isolate 3D7), UniProt Q8I5R7); test: MMV: ProRS recombinant Plasmodium falciparum Prolyl-tRNA-synthetase, assay with yeast tRNA, ATP, and proline and 3 uM MMV malaria box compound, assay read out with kinase glo as % inhibition.
T5 sequence (Q8I5R7 whole entry): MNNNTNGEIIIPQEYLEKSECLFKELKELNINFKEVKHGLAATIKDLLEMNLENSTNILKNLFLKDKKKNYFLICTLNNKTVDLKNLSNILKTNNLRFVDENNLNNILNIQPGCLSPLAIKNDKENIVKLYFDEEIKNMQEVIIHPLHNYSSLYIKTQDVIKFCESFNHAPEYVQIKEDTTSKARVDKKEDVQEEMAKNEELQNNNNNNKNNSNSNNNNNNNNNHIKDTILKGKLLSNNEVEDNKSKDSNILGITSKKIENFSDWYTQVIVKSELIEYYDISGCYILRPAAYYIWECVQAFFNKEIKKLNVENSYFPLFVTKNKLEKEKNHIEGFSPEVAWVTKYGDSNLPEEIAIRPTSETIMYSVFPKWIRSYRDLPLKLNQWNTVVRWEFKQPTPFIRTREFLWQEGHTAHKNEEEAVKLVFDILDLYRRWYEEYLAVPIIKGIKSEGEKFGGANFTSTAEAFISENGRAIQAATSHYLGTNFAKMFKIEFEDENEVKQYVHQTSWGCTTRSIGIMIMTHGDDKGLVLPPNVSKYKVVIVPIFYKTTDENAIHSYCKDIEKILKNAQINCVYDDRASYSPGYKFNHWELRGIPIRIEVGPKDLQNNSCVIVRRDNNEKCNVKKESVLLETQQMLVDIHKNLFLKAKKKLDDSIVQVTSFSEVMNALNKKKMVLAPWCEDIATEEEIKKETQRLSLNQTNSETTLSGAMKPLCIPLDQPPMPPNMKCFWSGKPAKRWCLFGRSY

Lysine--tRNA ligase = Lysine--tRNA ligase (Plasmodium falciparum (isolate 3D7), UniProt Q8IDJ8); test: MMV: KRS recombinant Plasmodium falciparum Lysyl-tRNA-synthetase, assay with yeast tRNA, ATP, and lysine and 3 uM MMV malaria box compound, assay read out with kinase glo as % inhibition.
Lysine--tRNA ligase, sequence (Q8IDJ8 whole entry): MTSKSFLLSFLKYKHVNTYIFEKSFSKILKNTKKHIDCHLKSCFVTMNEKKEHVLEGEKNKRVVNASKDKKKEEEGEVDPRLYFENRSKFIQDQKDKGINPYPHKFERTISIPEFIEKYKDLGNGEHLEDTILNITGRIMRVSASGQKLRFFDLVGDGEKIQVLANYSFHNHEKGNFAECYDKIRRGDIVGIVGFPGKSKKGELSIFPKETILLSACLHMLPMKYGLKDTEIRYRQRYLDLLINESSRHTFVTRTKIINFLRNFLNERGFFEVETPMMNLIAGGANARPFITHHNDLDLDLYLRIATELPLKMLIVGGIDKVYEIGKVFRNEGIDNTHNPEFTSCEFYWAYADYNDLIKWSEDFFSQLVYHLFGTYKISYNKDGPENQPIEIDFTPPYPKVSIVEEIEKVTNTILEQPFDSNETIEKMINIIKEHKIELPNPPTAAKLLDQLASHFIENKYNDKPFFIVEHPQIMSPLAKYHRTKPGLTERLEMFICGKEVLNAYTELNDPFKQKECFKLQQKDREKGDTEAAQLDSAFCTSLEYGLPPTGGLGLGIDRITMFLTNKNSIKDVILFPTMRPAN

Row | Structure (SMILES) | IC50 [1] [nM] | IC50 [2] [nM] | IC50 [3] [nM] | IC50 [4] [nM] | IC50 [5] [nM] | IC50 (Proline--tRNA ligase) [nM] | IC50 (Lysine--tRNA ligase) [nM]
1 | O=C(Nc1ccc(Cl)c(Cl)c1)Nc1ccc(Cl)c(Cl)c1 | > 1000 | > 1000 | > 1000 | > 1000 | > 1000 | > 2500 | > 2500
2 | Nc1nc(Nc2cccc(F)c2)nc2ccccc12 | > 1000 | > 1000 | > 1000 | > 1000 | > 1000 | > 2500 | > 2500
3 | O=C(NC1CCN(Cc2ccccc2)CC1)c1cc2nc(-c3ccc(Cl)s3)cc(C(F)(F)F)n2n1 | > 1000 | > 1000 | > 1000 | > 1000 | > 1000 | > 2500 | > 2500
4 | Cc1sc(NC(=O)c2ccccc2)c(C(c2cccs2)N2CCN(c3ccccc3)CC2)c1C (stereo not given) | > 1000 | > 1000 | > 1000 | > 1000 | > 1000 | > 2500 | > 2500
5 | COc1ccc(CCN2C(=O)c3[nH]nc(-c4cc(Cl)c(C)cc4O)c3C2c2ccccc2F)cc1 (stereo not given) | > 1000 | > 1000 | > 1000 | > 1000 | > 1000 | > 2500 | > 2500
6 | CCOc1ccc(N2C(N)=NC(N)=NC2(C)C)cc1 | > 1000 | > 1000 | > 1000 | > 1000 | > 1000 | > 2500 | > 2500
7 | COc1cccc(Nc2nc(N)c3ccccc3n2)c1 | > 1000 | > 1000 | > 1000 | > 1000 | > 1000 | > 2500 | > 2500
8 | O=C(CCl)NCCOc1ccc(Cl)cc1Cl | > 1000 | > 1000 | > 1000 | > 1000 | > 1000 | > 2500 | > 2500
9 | Oc1ccc(-c2nc(-c3ccc4oc5ccc(-c6[nH]c(-c7ccc(O)cc7)nc6-c6ccccc6)cc5c4c3)c(-c3ccccc3)[nH]2)cc1 | > 1000 | > 1000 | > 1000 | > 1000 | > 1000 | > 2500 | > 2500
10 | COc1ccc(CCn2c(=N)c(C(=O)NCc3cccnc3)cc3c(=O)n4cccc(C)c4nc32)cc1 | > 1000 | > 1000 | > 1000 | > 1000 | > 1000 | > 2500 | > 2500
11 | COc1ccc(Nc2cc(C)nc(NCc3ccccc3)n2)cc1 | > 1000 | > 1000 | > 1000 | > 1000 | > 1000 | > 2500 | > 2500
12 | O=C1c2ccc3c4c(ccc(c24)C(=O)N1CCCCO)C(=O)N(CCCCO)C3=O | > 1000 | > 1000 | > 1000 | > 1000 | > 1000 | > 2500 | > 2500
13 | CCOC(=O)c1cnc2ccc(OC)cc2c1Nc1ccc(N2CCN(C)CC2)cc1 | > 1000 | > 1000 | > 1000 | > 1000 | > 1000 | > 2500 | > 2500
14 | COc1ccc(C(=O)C(CCC(CNC(C)(C)C)C(=O)c2ccc(OC)cc2)CNC(C)(C)C)cc1 (stereo not given) | > 1000 | > 1000 | > 1000 | > 1000 | > 1000 | > 2500 | > 2500
15 | CN1C=C(c2ccc3ccccc3n2)C(c2c[nH]c3ccccc23)c2ccccc21 (stereo not given) | > 1000 | > 1000 | > 1000 | > 1000 | > 1000 | > 2500 | > 2500
16 | OC(CNC1CCCCC1)Cn1c2ccc(I)cc2c2cc(I)ccc21 (stereo not given) | > 1000 | > 1000 | > 1000 | > 1000 | > 1000 | > 2500 | > 2500
17 | COc1cc(CNCCc2ccc(Cl)cc2)cc(OC)c1O | > 1000 | > 1000 | > 1000 | > 1000 | > 1000 | > 2500 | > 2500
18 | Oc1ccc(Br)cc1CN1CCN(Cc2ccc(Cl)cc2)CC1 | > 1000 | > 1000 | > 1000 | > 1000 | > 1000 | > 2500 | > 2500
19 | CC(C)(C)c1ccc(C2CC3=Nc4ccccc4N(C(=O)c4ccccc4Cl)C(c4ccc(F)cc4)C3=C(O)C2)cc1 (stereo not given) | > 1000 | > 1000 | > 1000 | > 1000 | > 1000 | > 2500 | > 2500
20 | CN1CCN(c2nc(Nc3ccc(O)cc3)nc3ccccc23)CC1 | > 1000 | > 1000 | > 1000 | > 1000 | > 1000 | > 2500 | > 2500

Reference: ChEMBL document CHEMBL3301562, “MMV Box screening against Plasmodium falciparum protein kinases and aminoacyl tRNA synthetases”
